“And” between values parts separate entries of the source, which are not always exact repeats. Equal values may be shown once. Read-outs that look alike come from different tables or passages of the source.
How the values were obtained:
[1] = meta-analysis (Lewis et al., 2002); cited from earlier work
[2] = system: MC-26 tumor; conditions: for overall survival rate: day 50
Experimental: Starting on day 7 after tumor cell inoculation, mice were randomly divided into eight groups as follow:
Group 1: control; control chow; 0.9% NaCl injected intraperitoneally (IP) on days 9, 11, 15, 18, 23, and 28; and 5% IP glucose on days 8, 12, 15, 19, 22, and 25.
Group 4: irinotecan alone; control chow; irinotecan 30 mg/kg on days 8, 12, 15, 19, 22, and 25; and 0.9% NaCl on days 9, 11, 15, 18, 23, and 28.
The date and number of animal in each group were recorded for survival analysis.

[3] = Gross necroscopic examination for GI mucosal injury; assay type: in vivo, mouse; conditions: mice consuming chow containing ibuprofen
[4] = system: MC-26 liver metastasis; test: Experimental liver metastasis model (subsplenic MC-26 injection); assay type: in vivo, mouse; conditions: 1360 mg/kg chow for 14 days
Experimental: The incidence and extent of liver metastasis were then recorded.

[5] = system: MC-26 cell PGE2 levels; test: Prostaglandin E2 ELISA, MC-26 conditioned medium; assay type: cell-based, mouse; conditions: MC-26 cells, 1000 μM, 24 h
Experimental: (§1) The transplantable mouse CRC cell line MC-26 (Singh et al., 1986) was obtained from Dr. K. K. Tanabe (Massachusetts General Hospital, Boston, Mass.), and the human colorectal adenocarcinoma cell line HT 29 was obtained from ATCC. MC-26 cells and HT-29 were maintained in Dulbecco's modified Eagle's medium (DMEM; Life Technologies, Inc, Gaithersburg, Md.) and McCoy's 5A medium, respectively, supplemented with 10% fetal calf sertum plus antibiotics at 37° C. in a humidified atmosphere of 95% air/5% C02. Human umbilical vein endothelial cells (HUVECs) was purchased from Canibrex (Walkersville, Md.) and maintained in EGM-2 medium (Cambrex).
(§2) Prostaglandin E2 (PGE2), the major metabolite of arachidonic acid metabolism, was measured by ELISA (Cayman Chemical, Ami Arbor, Mich.), using conditional cell culture medium, according to the protocol provided by manufacturer. Measurements were made in triplicate in separate experiments.

[6] = system: HUVEC; test: HUVEC cell proliferation (MTT); assay type: cell-based, human; conditions: 1000 μM, 24 h
Experimental: as §1
(§3) In Vitro cell proliferation was assessed using a CellTiter 96®AQ One Solution Cell Proliferation Assay kit (Promega). 1-3×10^4 cells/ml were plated in 96-well microtiter plates and incubated overnight. […] 20 μl of MTS tetrazolium solution were added to each well, and the cells were further incubated at 37° C. for 1 h, at which time the reactions were stopped by the addition of 10% SDS. The absorbance at wavelength 490 nm was measured using an EX800 microplate reader (Bio-Tek, Highland, Wis.).

[7] = Plasma ibuprofen concentration in mice fed ibuprofen chow; assay type: in vivo, mouse; conditions: mice fed chow containing 1360 mg/kg; blood on days 7 and 14
Experimental: Ibuprofen was purchased from Sigma, and pellet-formed chow containing ibuprofen was prepared by Harlan Teklad (Madison, Wis.). Blood was drawn on day 7 and 14 by tail bleeding, and serum was separated from the whole blood and frozen at −70° C. until analysis.
The plasma samples were analyzed by a quantified liquid chromatography-tandem mass spectrometry (LC/MS/MS) method. Sample preparation was performed using protein precipitation.
A […] aliquot of internal standard working solution (3000 ng/mL of Phenacetin I.S. in acetonitrile) was added to 25 μL of plasma. Each sample was then vortexed and centrifuged for 15 min at a speed of 13,000 rpm at 4° C.
After centrifugation, 150 μL of the supernatant was transferred into an HPLC vial, and aliquots of 5 μL were injected using a Perkin Elmer 200 Series autosampler (Perkin Elmer: Norwalk Conn.). The loading and analytical columns were a Zorbax Extend C18 (4.6×12.5 mm, 5 μdp; Agilent Technologies: Palo Alto, Calif.) and a Waters Xterra C 18 (3.9×20 mm, 3.5 μdp; Waters Corporation: Milfaird, Mass.), respectively. […] The column effluent was analyzed by selected reaction monitoring using a triple quadruple mass spectrometer (Micromass Quattro Ultima; Manchester, UK) equipped with an electrospray ion source operating in negative ion mode.

[8] = system: HUVECs; test: In vitro angiogenesis (tube formation) assay; assay type: cell-based, human; conditions: 1000 μM
Experimental: An in vitro anigiogenesis assay was performed according to the protocol provided by manufacturer (Chemicon, Temecula, Calif.) and described previously ([…] et al., 2004; […] et al., 2004). […] Microscopic digital images were taken, and cumulative tube length was measured using SpotTM3.5.6.

[9] = system: HT-29 cells; test: In vitro cell proliferation assay (MTT), HT-29; assay type: cell-based, human; conditions: HT-29, 1000 μM, 72 h
Experimental: as §1, §3

[10] = system: CD31 positive microvessels; test: CD31 microvessel immunohistochemistry of tumor sections; assay type: in vivo, mouse; conditions: P=0.059
Experimental: To assess anigiogenesis in tumor tissues, frozen sections were made and microvessels were stained with anti-mouse CD31 mnonocolonal antibodies (BD transduction laboratories). The specimens were incubated with secondary antibody for 1 h at 37° C. and stained by the avidin-biotin peroxide complex (ABC) method using an ABC staining kit (Santa Cruz Biotech, Santa Cruz, Calif.). They were visualized by 3,3′-diammobenzidme (DAB) and counlterstained with hematoxyhn.

[11] = system: HT-29 tumor; test: HT-29 human xenograft CRC model in nude mice; conditions: throughout the period of investigation
[12] = system: MC-26 cells; test: In vitro cell proliferation assay (MTT), MC-26; assay type: cell-based, mouse; conditions: 72 h
Experimental: as §1
In Vitro cell proliferation was assessed using a CellTiter 96®AQ One Solution Cell Proliferation Assay kit (Promega). 1-3×10^4 cells/ml were plated in 96-well microtiter plates and incubated overnight. […]

[13] = system: HT-29 cells PGE2 levels; test: Prostaglandin E2 ELISA, HT-29 conditioned medium; assay type: cell-based, human; conditions: 24 h
Experimental: as §1, §2

[14] = cited from earlier work
[15] = system: MC-26 tumor; test: Subcutaneous MC-26 tumor model, single agent

O=C(O)Cc1ccccc1Nc1c(Cl)cccc1Cl [diclofenac]
odds ratio, serious upper GI bleeding [1]: 4.9

COc1ccc2cc([C@H](C)C(=O)O)ccc2c1 [naproxen]
odds ratio, serious upper GI bleeding [1]: 9.1

CCc1c2c(nc3ccc(OC(=O)N4CCC(N5CCCCC5)CC4)cc13)-c1cc3c(c(=O)n1C2)COC(=O)[C@]3(O)CC [CPT-11, Irinotecan]
average body weight ([2]; day 28, average over the named groups, control 19.65±1.24): 23.1 ± 1.72 g
overall survival rate ([2]; 5-FU given with leucovorin): 80%
survival compared to control mice and other regimens ([2]; mouse, in vivo): significantly prolonged

CN1C(C(=O)Nc2ccccn2)=C(O)c2ccccc2S1(=O)=O [piroxicam]
odds ratio, serious upper GI bleeding [1]: 13.1

CC(C)Cc1ccc(C(C)C(=O)O)cc1 (stereo not drawn) [ibuprofen]
gastroduodenal / GI mucosal injury [3]: no evidence of gastroduodenal mucosal injury
gastroduodenal / GI mucosal injury ([3]; listed as Ibuprofen): No GI mucosal injury
liver metastases vs control [4]: more prevalent and larger in the control group
liver metastases vs control ([4]; listed as IB): Fewer liver metastases
PGE2 levels diminished compared to control [5]: 70.1%
PGE2 level ([5]; control 268.5): 80.0 pg/mL
MTT levels diminished compared to control [6]: approximately 80%
plasma ibuprofen concentration [7]: ~18,760±7,270 ng/ml and ~20,978±5,966 ng/ml
reduction in tube length ([8]; 6 h): 40%
tube length ([8]; 6 h, control 155.4±21.3): 94.0±24.9 μm
reduction in tube length ([8]; 24 h): 88%
tube length ([8]; 24 h, control 76.2±13.5): 9.40±6.95 μm
MTT levels diminished compared to control [9]: 26.7%
reduction in number of microvessels [10]: ~30%
body weight vs control [11]: no significant difference in body weight
decrease in MC-26 cell proliferation ([12]; 125 μM): 1.3%
decrease in MC-26 cell proliferation ([12]; 250 μM): 5.8%
decrease in MC-26 cell proliferation ([12]; 500 μM): 11.3%
decrease in MC-26 cell proliferation ([12]; 1000 μM): 39.8%
PGE2 levels diminished compared to control [13]: 81.1%
PGE2 level ([13]; control 95.6 pg/mL): 18 pg/mL
plasma ibuprofen peak concentration ([14]; 300 mg capsule, fasting humans (Halsas et al., 1999)): approximately 27,000 ng/ml
peak plasma concentration (Cmax) ([14]; healthy humans, long-term high-dose 14 mg/kg): 65,000 ng/ml
Cmax ([14]; healthy humans, low dose 2.6 mg/kg): 15,800 ng/ml
Cmax ([14]; healthy humans, moderate dose 7 mg/kg): 34,000 ng/ml
peak plasma ibuprofen concentration ([14]; single dose of 300 mg, humans (Halsas et al., 1999)): ≥ 27,000 ng/mil
tumor growth inhibited ([15]; chow containing 1360 ppm, summary over mouse and human CRC models): 40-82%
average body weight ([15]; day 21, control 20.3±2.6): 24.1 ± 1.73 g

O=c1[nH]cc(F)c(=O)[nH]1 [5-FU, Fluorouracil]
overall survival rate ([2]; 5-FU given with leucovorin): 30%
tumor volume ([2]; treatment day 7 to 28, 5-FU given with leucovorin, control 1491.3±862): 499±234 mm^3

From patent US20070269531A1, “Non-Steroid Anti-Inflammatory Agents with Vitamins, Minerals, and Dietary Supplements for the Prevention and Treatment of Primary, Secondary and Tertiary Cancer” (priority 2004, published 2007)
